Test results as given in patent publication US4997854A, “Anti-fibrotic agents and methods for inhibiting the activity of lysyl oxidase in-situ using adjacently positioned diamine analogue substrates” (Trustees of Boston University, priority 1989, dated 1991).
Like-named read-outs stand apart in the source and are kept apart here. One block for each compound: values may come before it.

How the values were obtained:
[1] = molecular target: T1, lysyl oxidase (Bos taurus, UniProt P33072); test: Lysyl oxidase peroxidase-coupled fluorescence assay of n-hexylamine oxidation; type: biochemical, bovine
T1 construct: Lysyl oxidase was purified from bovine aorta as previously described; from tissue; host or cells: bovine aorta
T1 sequence (P33072 170-418): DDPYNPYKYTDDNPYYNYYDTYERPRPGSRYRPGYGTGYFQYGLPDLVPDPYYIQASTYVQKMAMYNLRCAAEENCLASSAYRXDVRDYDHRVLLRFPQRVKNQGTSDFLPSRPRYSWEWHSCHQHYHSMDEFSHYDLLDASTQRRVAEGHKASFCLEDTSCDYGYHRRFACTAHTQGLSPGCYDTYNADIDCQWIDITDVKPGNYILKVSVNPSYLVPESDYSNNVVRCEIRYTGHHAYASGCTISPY
Description: Lysyl oxidase was purified from bovine aorta as previously described. [Williams, M. A. and H. M. Kagan, Anal. Biochem. 113:336 (1985)].
(§1) The purified lysyl oxidase enzyme was also assayed against alkyl monoamines and alkyl diamines using the reported peroxidase-coupled fluorescence method at 55° C. [Trackman et al., Anal. Biochem. 113:336-342 (1981)]. The reaction mixtures contained 40 ug horseradish peroxidase, 0.7 mM homovanillic acid, 1.2M urea, 0.02M potassium phosphate/borate buffer, at pH 8 (or at varying values of pH as indicated) in a total volume of 2 ml. Assay solutions were adjusted to an ionic strength of 0.04 using potassium chloride. Lysyl oxidase was then added to initiate the reaction. Fluorescence was continuously monitored at an excitation wavelength of 315 nm and an emission wavelength of 425 nm. The enzyme-dependent production of hydrogen peroxide was quantified by reference to standard plots relating nanomoles of hydrogen peroxide added to fluorescence units. […] Kinetic constants were derived from initial rate assay data by using the Fortan program of Cleland [Meth. Enzymol. 63:103-138 (1979)] which determines Vmax and Km values from data of Michaelis-Menten experiments using a least squares fitting procedure applied to the Michaelis-Menten equation.
The pH-dependency of the Vmax for the oxidation of a series of diamines and monoamine substrates by lysyl oxidase was first explored.
(§2) Accordingly cis and trans isomers of DACH were used to probe this possibility.

[2] = molecular target: T1, lysyl oxidase; test: Irreversible, time-dependent inactivation of lysyl oxidase (preincubation, then dialysis or dilution into the assay); type: biochemical, bovine; details: for rate of inactivation under anaerobic conditions: anaerobic / nitrogen-purged
Description: as §2
In addition, the time-dependency for the expression of irreversible inhibition was assessed by initially preincubating lysyl oxidase at 37° in the presence or absence of various concentrations of cis-DACH; and then diluting aliquots of these individual reaction mixtures into peroxidase-coupled assays for n-hexylamine oxidation - thereby reducing the cis-DACH concentrations to non-inhibitory levels within the lysyl oxidase assays. […] The possibility that the inactivation derived from the removal of the metal ion cofactor of the enzyme by the cyclic diamine was then assessed by atomic absorption spectroscopy.

[3] = molecular target: T1, lysyl oxidase; test: Release of 3H+ from [1,2-3H]DACH by lysyl oxidase; type: biochemical, bovine; details: for Ratio ^3 H^+/Oxidant / ^3 H^+ Released: 1 mM [^3 H]DACH; for ^3 H^+ Released: pH 8, 37°C, maximum level
Description: ^a/ The indicated amounts of PQQ or functional active sites of lysyl
oxidase were incubated with [^3 H]DACH (1 mM; 0.13 mCi/mmole) in 50 m
sodium borate, pH 8, at 37°C. and aliquots of the incubation
mixture were removed at intervals, distilled in vacuo and the isolated
[^3 H]H2 O was quantified by liquid scintillation spectrometry.
The values shown are the maximum levels accumulated in these assays and
are corrected for minor background
effects in the absence of oxidant.
Toward similar ends [1,2-^3 H]DACH was synthesized and used to determine whether the reaction of this diamine with limiting quantities of free PQQ or of lysyl oxidase would result in the release of ^3 H^+ --a result to be expected if carbon 1 and/or carbon 2 positions of cis-DACH were oxidized in these reaction mixtures. As provided by Table E2, approximately 2 moles of ^3 H^+ were released per mole of each limiting reactant; with a maximum of 2.30 moles of ^3 H^+ released per mole of PQQ and a maximum of 1.88 moles of ^3 H^+ released per mole of functional active site in lysyl oxidase. While the synthetic, tritiated product used in these studies consisted of a mixture of the cis and trans isomers, the concentration of [^3 H]DACH incubated with the lysyl oxidase enzyme was sufficiently low to restrict the reaction primarily to the cis isomer--based upon the previous assessment of the relative potency of these compounds as inhibitors of lysyl oxidase or as perturbants of the spectrum of PQQ.

[4] = molecular target: T1, lysyl oxidase; test: Protein-bound copper of lysyl oxidase by atomic absorption spectroscopy; set-up: species or system bovine; details: 1 mM, then dialyzed against metal-free buffer
Description: In addition, the time-dependency for the expression of irreversible inhibition was assessed by initially preincubating lysyl oxidase at 37° in the presence or absence of various concentrations of cis-DACH; and then diluting aliquots of these individual reaction mixtures into peroxidase-coupled assays for n-hexylamine oxidation - thereby reducing the cis-DACH concentrations to non-inhibitory levels within the lysyl oxidase assays. […] This is illustrated by FIG. 4. […] The possibility that the inactivation derived from the removal of the metal ion cofactor of the enzyme by the cyclic diamine was then assessed by atomic absorption spectroscopy. This method of analysis yielded the same values for protein-bound copper in aliquots of purified lysyl oxidase which had been incubated in either the presence or absence of 1 mM cis-DACH and then dialyzed extensively against metal-free buffer.

[5] = molecular target: T1, lysyl oxidase; test: Release of H2O2 on oxidation of cis-DACH by lysyl oxidase; type: biochemical, bovine; details: for Ratio H2O2/Oxidant / H2O2 Released: 1 mM cis-DACH; for H2O2 Released: maximal release
Description: as §1
In view of the apparent inhibiting effect of anaerobic conditions on the induction by cis-DACH of changes in the spectra of PQQ and lysyl oxidase, the possibility was evaluated that oxidation of the diamine substrate analogue may be involved in the development of irreversible inhibition of lysyl oxidase. […] This argues against significant catalytic turnover with the cyclic diamine. Nevertheless, as illustrated by FIG. 7, the development of irreversible inhibition was strongly dependent upon the presence of oxygen since the rate of inactivation was negligible under anaerobic conditions.
Toward that end, evidence was sought for the release of H2 O2 upon the reaction of cis-DACH with limiting amounts of PQQ or of relatively large quantities (although limiting relative to cis-DACH) of pure lysyl oxidase. As given by Table E1, hydrogen peroxide formation was seen under these conditions with the maximum levels of H2 O2 formed essentially equal to the amount of the limiting reactant in both cases, i.e., free PQQ or lysyl oxidase, respectively.
^a/ Hydrogen peroxide as assayed in the peroxidasecoupled fluorescenc
assay using 1 mM cisDACH as the sole source of amine substrate and
containing lysyl oxidase or PQQ at the indicated amounts. Incubations wer
continued until the release of H2 O2 was maximal in each case.
The quantity of lysyl oxidase used is expressed in the Table in terms of
functional active site content. The concentration of PQQ was determined
using 19,122 as the molar extinction coefficent.

[6] = molecular target: T1, lysyl oxidase; test: Perturbation of the absorption spectrum of lysyl oxidase; set-up: species or system bovine
Description: Absorption spectra were recorded in 1 cm cuvettes with a Hewlett Packard Diode Array spectrophotometer, with temperatures controlled by circulating water through the cuvette holder. Mixtures were made anaerobic by purging buffers and stock solutions in rubber-capped tubes with high purity nitrogen for 15 min, and then injecting aliquots of the solutions into a 1 cm semi-micro cuvette fitted with a rubber septum and flushed with nitrogen before addition of reagents. Once in the capped cuvette, each solution was further exposed to a stream of nitrogen passed over the surface of the solution and out of the capped cuvette through 21 guage needles for 5 min. just prior to spectral recording. Each perturbation described was reproducible in three or more trials.
Increased absorption occurs in accordance with an increase in optical density occurring in the region of 250 nm; a broad peak also develops with a maximum absorbance at 350-355 nm upon incubation of 47 uM cis-DACH with 4.25 uM of functional active sites in lysyl oxidase as shown in FIG. 6B. The absorption peak at 350-355 nm correlates quite well with a peak generated at the same position in the spectrum of PQQ by its interaction with cis-DACH.

[7] = n-hexylamine substrate, competitive, read-out: KI, competitive inhibition of lysyl oxidase activity against n-hexylamine
[8] = lysyl oxidase as oxidant, mean of 3 amounts

- IC50 ([1]; n-hexylamine oxidation, extrapolated, read-out: (extrapolated) I50 in assays of n-hexylamine oxidation): > 10000 µM
- fold less inhibitory than cis-DACH ([1]; n-hexylamine oxidation, relative to cis-DACH): at least 10,000 fold
Structure (SMILES): N[C@@H]1CCCC[C@H]1N (relative stereo) [trans-DACH, 1,2-Diaminocyclohexane, reference compound]

Structure (SMILES): NCCN [EDA, Ethylenediamine]
- Ki [1, 7]: 2 µM
- rate of inactivation under anaerobic conditions [2]: markedly reduced

- Ratio ^3 H^+/Oxidant ([3]; 0.50 nanomoles lysyl oxidase active sites): 1.96
- ^3 H^+ Released ([3]; 0.50 nanomoles lysyl oxidase functional active sites): 0.98 Nanomoles
- Ratio ^3 H^+/Oxidant ([3]; 1.24 nanomoles lysyl oxidase active sites): 1.80
- ^3 H^+ Released ([3]; 1.24 nanomoles lysyl oxidase functional active sites): 2.23 Nanomoles
- Ratio ^3 H^+/Oxidant ([3]; 3.72 nanomoles lysyl oxidase active sites): 1.87
- ^3 H^+ Released ([3]; 3.72 nanomoles lysyl oxidase functional active sites): 6.95 Nanomoles
- Ratio ^3 H^+/Oxidant, mean [3, 8]: 1.88 ± 0.07
Structure (SMILES): [3H]C1(N)CCCCC1([3H])N (centres unmarked) [[1,2-^3 H]DACH, [1,2-^3 H]-1,2-diaminocyclohexane]
- ^3 H^+ released per mole of functional active site in lysyl oxidase ([3]; limiting lysyl oxidase): 1.88 moles of ^3 H^+ released per mole of functional active site

- removal of copper from the active site [4]: did not remove copper
- Ki ([1]; as restated in the summary, read-out: KI): 0.38 µM
- IC50 ([1]; n-hexylamine oxidation, read-out: I50 in assays of n-hexylamine oxidation): 1.5 µM
- Ki [1, 7]: 0.38 µM
- rate of inactivation under anaerobic conditions [2]: negligible
- reversibility of inhibition ([2]; enzyme preincubated with 0.05M cis-DACH at 37° for 15 min, then dialyzed): irreversible
- kinact ([2]; preincubation at 37°, secondary reciprocal plot, read-out: limiting apparent first order rate constant for inactivation, Kinact (converted)): 0.3 s⁻¹
- Ratio H2O2/Oxidant ([5]; 0.71 nanomoles lysyl oxidase active sites): 1.40
- H2O2 Released ([5]; 0.71 nanomoles lysyl oxidase functional active sites): 1.0 nmol
- Ratio H2O2/Oxidant ([5]; 1.78 nanomoles lysyl oxidase active sites): 0.96
- H2O2 Released ([5]; 1.78 nanomoles lysyl oxidase functional active sites): 1.70 nmol
- formation of H2O2 with catalytic quantities of lysyl oxidase ([5]; 2-4 ug lysyl oxidase, limit of sensitivity ca. 1 nanomole of H2O2): not detectable
- Ratio H2O2/Oxidant ([5]; 2.20 nanomoles lysyl oxidase active sites): 0.69
- H2O2 Released ([5]; 2.20 nanomoles lysyl oxidase functional active sites): 1.52 nmol
- Ratio H2O2/Oxidant, mean [5, 8]: 1.02 ± 0.29
- perturbation of the lysyl oxidase spectrum ([6]; aerobic, 47 uM cis-DACH with 4.25 uM functional active sites): perturbed
- perturbation of the lysyl oxidase spectrum under anaerobic conditions ([6]; anaerobic): not altered significantly
Structure (SMILES): N[C@@H]1CCCC[C@@H]1N [cis-DACH, 1,2-Diaminocyclohexane]
